Assay results: PubChem BioAssay (NCI)
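In this assay, cells in 96-well plates receive the compound at five concentrations for 48 hours. Endpoints are linearly interpolated between the surrounding concentrations. TGI is the concentration that stops growth completely.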

How the values were obtained:
Experiment in all cases: NCI anticancer screen, dose series, 48 h
SF-539 CNS = system: SF-539 CNS
HS 578T breast = system: HS 578T breast
MALME-3M melanoma = system: MALME-3M melanoma
SN12C renal = system: SN12C renal
BT-549 breast = system: BT-549 breast
SF-295 CNS = system: SF-295 CNS
OVCAR-8 ovarian = system: OVCAR-8 ovarian
NCI/ADR-RES ovarian = system: NCI/ADR-RES ovarian
RXF 393 renal = system: RXF 393 renal
DU-145 prostate = system: DU-145 prostate
M14 melanoma = system: M14 melanoma
NCI-H460 lung = system: NCI-H460 lung
IGROV1 ovarian = system: IGROV1 ovarian
TK-10 renal = system: TK-10 renal
SK-MEL-5 melanoma = system: SK-MEL-5 melanoma
CAKI-1 renal = system: CAKI-1 renal
EKVX NSCLC = system: EKVX NSCLC
K-562 leukemia = system: K-562 leukemia
SR leukemia = system: SR leukemia
CCRF-CEM leukemia = system: CCRF-CEM leukemia
MDA-N = system: MDA-N
MDA-MB-435 = system: MDA-MB-435
HCC-2998 colon = system: HCC-2998 colon
SK-MEL-28 melanoma = system: SK-MEL-28 melanoma
PC-3 prostate = system: PC-3 prostate
SNB-19 CNS = system: SNB-19 CNS
A498 renal = system: A498 renal
RPMI-8226 leukemia = system: RPMI-8226 leukemia
NCI-H226 lung = system: NCI-H226 lung
KM12 colon = system: KM12 colon
A549 NSCLC = system: A549 NSCLC
HT29 colon = system: HT29 colon
786-0 renal = system: 786-0 renal
HOP-62 NSCLC = system: HOP-62 NSCLC
UACC-257 melanoma = system: UACC-257 melanoma
ACHN renal = system: ACHN renal
SNB-75 CNS = system: SNB-75 CNS
UO-31 renal = system: UO-31 renal
SK-OV-3 ovarian = system: SK-OV-3 ovarian
NCI-H23 lung = system: NCI-H23 lung
HCT-15 colon = system: HCT-15 colon
U251 CNS = system: U251 CNS
SK-MEL-2 melanoma = system: SK-MEL-2 melanoma
OVCAR-3 ovarian = system: OVCAR-3 ovarian
COLO 205 colon = system: COLO 205 colon
LOX IMVI melanoma = system: LOX IMVI melanoma
MOLT-4 leukemia = system: MOLT-4 leukemia
OVCAR-5 ovarian = system: OVCAR-5 ovarian
MDA-MB-231 breast = system: MDA-MB-231 breast
SW-620 colon = system: SW-620 colon
HCT-116 colon = system: HCT-116 colon
NCI-H522 lung = system: NCI-H522 lung
MCF7 breast = system: MCF7 breast
SF-268 CNS = system: SF-268 CNS
UACC-62 melanoma = system: UACC-62 melanoma
HOP-92 NSCLC = system: HOP-92 NSCLC
T-47D breast = system: T-47D breast
OVCAR-4 ovarian = system: OVCAR-4 ovarian
HL-60(TB) leukemia = system: HL-60(TB) leukemia

Q: Which TGI (SF-539 CNS) does the source give for `O=C(O)C(=Cc1ccc(-c2ccc([N+](=O)[O-])cc2)o1)C(=O)O` here?
A: The TGI was over 100 µM.

Q: What about the TGI (HS 578T breast) of the same compound?
A: The TGI was over 100 µM.

Q: And the TGI (MALME-3M melanoma)?
A: Its TGI is over 100 µM.

Q: And the TGI (SN12C renal)?
A: The TGI was over 100 µM.

Q: What about the TGI (BT-549 breast) of the same compound?
A: Its TGI is over 100 µM.

Q: And the TGI (SF-295 CNS)?
A: Its TGI is over 100 µM.

Q: And the TGI (OVCAR-8 ovarian)?
A: Its TGI is over 100 µM.

Q: What about the TGI (NCI/ADR-RES ovarian) of the same compound?
A: The TGI was over 100 µM.

Q: And the TGI (RXF 393 renal)?
A: Its TGI is over 100 µM.

Q: And the TGI (DU-145 prostate)?
A: The TGI was over 100 µM.

Q: And the TGI (M14 melanoma)?
A: The TGI was over 100 µM.

Q: And the TGI (NCI-H460 lung)?
A: Its TGI is over 100 µM.

Q: And the TGI (IGROV1 ovarian)?
A: Its TGI is over 100 µM.

Q: What about the TGI (TK-10 renal) of the same compound?
A: The TGI was over 100 µM.

Q: And the TGI (SK-MEL-5 melanoma)?
A: The TGI was over 100 µM.

Q: And the TGI (CAKI-1 renal)?
A: Its TGI is over 100 µM.

Q: And the TGI (EKVX NSCLC)?
A: Its TGI is over 100 µM.

Q: What about the TGI (K-562 leukemia) of the same compound?
A: The TGI was over 100 µM.

Q: And the TGI (SR leukemia)?
A: Its TGI is over 100 µM.

Q: What about the TGI (CCRF-CEM leukemia) of the same compound?
A: The TGI was over 100 µM.

Q: And the TGI (MDA-N)?
A: Its TGI is over 100 µM.

Q: What about the TGI (MDA-MB-435) of the same compound?
A: Its TGI is over 100 µM.

Q: And the TGI (HCC-2998 colon)?
A: The TGI was over 100 µM.

Q: What about the TGI (SK-MEL-28 melanoma) of the same compound?
A: The TGI was over 100 µM.

Q: And the TGI (PC-3 prostate)?
A: The TGI was over 100 µM.

Q: What about the TGI (SNB-19 CNS) of the same compound?
A: The TGI was over 100 µM.

Q: What about the TGI (A498 renal) of the same compound?
A: The TGI was over 100 µM.

Q: And the TGI (RPMI-8226 leukemia)?
A: The TGI was over 100 µM.

Q: And the TGI (NCI-H226 lung)?
A: The TGI was over 100 µM.

Q: And the TGI (KM12 colon)?
A: Its TGI is over 100 µM.

Q: And the TGI (A549 NSCLC)?
A: Its TGI is over 100 µM.

Q: And the TGI (HT29 colon)?
A: Its TGI is over 100 µM.

Q: What about the TGI (786-0 renal) of the same compound?
A: The TGI was over 100 µM.

Q: And the TGI (HOP-62 NSCLC)?
A: Its TGI is over 100 µM.

Q: What about the TGI (UACC-257 melanoma) of the same compound?
A: The TGI was over 100 µM.

Q: And the TGI (ACHN renal)?
A: Its TGI is over 100 µM.

Q: And the TGI (SNB-75 CNS)?
A: Its TGI is over 100 µM.

Q: What about the TGI (UO-31 renal) of the same compound?
A: The TGI was over 100 µM.

Q: And the TGI (SK-OV-3 ovarian)?
A: Its TGI is over 100 µM.

Q: And the TGI (NCI-H23 lung)?
A: The TGI was over 100 µM.

Q: What about the TGI (HCT-15 colon) of the same compound?
A: The TGI was over 100 µM.

Q: What about the TGI (U251 CNS) of the same compound?
A: The TGI was over 100 µM.

Q: What about the TGI (SK-MEL-2 melanoma) of the same compound?
A: The TGI was over 100 µM.

Q: And the TGI (OVCAR-3 ovarian)?
A: The TGI was over 100 µM.

Q: What about the TGI (COLO 205 colon) of the same compound?
A: Its TGI is over 100 µM.

Q: And the TGI (LOX IMVI melanoma)?
A: Its TGI is over 100 µM.

Q: And the TGI (MOLT-4 leukemia)?
A: Its TGI is over 100 µM.

Q: What about the TGI (OVCAR-5 ovarian) of the same compound?
A: Its TGI is over 100 µM.

Q: And the TGI (MDA-MB-231 breast)?
A: The TGI was over 100 µM.

Q: What about the TGI (SW-620 colon) of the same compound?
A: Its TGI is over 100 µM.

Q: What about the TGI (HCT-116 colon) of the same compound?
A: Its TGI is over 100 µM.

Q: And the TGI (NCI-H522 lung)?
A: The TGI was over 100 µM.

Q: What about the TGI (MCF7 breast) of the same compound?
A: The TGI was over 100 µM.

Q: And the TGI (SF-268 CNS)?
A: Its TGI is over 100 µM.

Q: And the TGI (UACC-62 melanoma)?
A: The TGI was over 100 µM.

Q: Which results are given for `O=C(Nc1ccn(C2CCC(COC(c3ccccc3)(c3ccccc3)c3ccccc3)O2)c(=O)n1)c1ccccc1` (stereo unspecified)?
A: TGI (SF-539 CNS): 7 µM; TGI (HS 578T breast): 9.05 µM; TGI (MALME-3M melanoma): 9.91 µM; TGI (SN12C renal): 4.33 µM; TGI (SF-295 CNS): 5.9 µM; TGI (OVCAR-8 ovarian): 10.1 µM; TGI (NCI/ADR-RES ovarian): 8.73 µM; TGI (RXF 393 renal): 11.1 µM; TGI (DU-145 prostate): 15.5 µM; TGI (M14 melanoma): 11.8 µM; TGI (NCI-H460 lung): 10.4 µM; TGI (IGROV1 ovarian): 13.4 µM; TGI (HOP-92 NSCLC): 4.74 µM; TGI (SK-MEL-5 melanoma): 6.41 µM; TGI (CAKI-1 renal): 13.4 µM; TGI (EKVX NSCLC): 14.4 µM; TGI (T-47D breast): 27.9 µM; TGI (K-562 leukemia): 7.97 µM; TGI (SR leukemia): 4.82 µM; TGI (CCRF-CEM leukemia): 9.04 µM; TGI (MDA-N): 10.5 µM; TGI (MDA-MB-435): 10.6 µM; TGI (HCC-2998 colon): 29.2 µM; TGI (SK-MEL-28 melanoma): 16.9 µM; TGI (PC-3 prostate): 5.71 µM; TGI (SNB-19 CNS): 14.8 µM; TGI (RPMI-8226 leukemia): 5.21 µM; TGI (NCI-H226 lung): 18 µM; TGI (KM12 colon): 14.6 µM; TGI (A549 NSCLC): 13 µM; TGI (HT29 colon): 6.09 µM; TGI (OVCAR-4 ovarian): 7.71 µM; TGI (786-0 renal): 6.41 µM; TGI (HL-60(TB) leukemia): 4.7 µM; TGI (HOP-62 NSCLC): 16.3 µM; TGI (UACC-257 melanoma): 17.9 µM; TGI (ACHN renal): 9.74 µM; TGI (SNB-75 CNS): 8.35 µM; TGI (UO-31 renal): 14.1 µM; TGI (SK-OV-3 ovarian): 26.3 µM; TGI (NCI-H23 lung): 7.8 µM; TGI (HCT-15 colon): 11.2 µM; TGI (U251 CNS): 13.8 µM; TGI (SK-MEL-2 melanoma): 8.71 µM; TGI (OVCAR-3 ovarian): 6.47 µM; TGI (COLO 205 colon): 4.2 µM; TGI (LOX IMVI melanoma): 7.02 µM; TGI (MOLT-4 leukemia): 5.16 µM; TGI (OVCAR-5 ovarian): 7.95 µM; TGI (MDA-MB-231 breast): 13.9 µM; TGI (SW-620 colon): 15.2 µM; TGI (HCT-116 colon): 11.9 µM; TGI (NCI-H522 lung): 19.2 µM; TGI (MCF7 breast): 10.2 µM; TGI (SF-268 CNS): 17.4 µM; TGI (UACC-62 melanoma): 16.7 µM
